The target of one assay is T1, NAMPT (Homo sapiens, UniProt P43490).
T1 construct: His tag; host or cells: E. coli
The experiment in a line: Biochemical inhibition assay: NAMPT enzymatic reaction, NMN quantified by mass spectrometry. The conditions noted are these: read-out: Biochem IC50. The method in brief: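 Inhibition of E. coli-expressed His-tagged human NAMPT, measured as NMN formation by mass spectrometry after a 30 min room-temperature reaction containing 1 μM NAM, 100 μM PRPP and 2.5 mM ATP.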

The subject of a further assay is A2780 cells. The experiment in a line: In-vitro cell proliferation assay (SRB), A2780 cells. Format: cell-based. The conditions noted are these: Homo sapiens, A2780, 72 h, A2780 cells, 72 hours, read-out: A2780 IC50. The gist of the method:
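Viable cells measured by SRB staining after 6% TCA fixation, absorbance 570 nm. Media-only background subtracted; % inhibition derived at two compound concentrations.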

Consider 29 compounds from patent US12336981B2, “Compounds and compositions for the inhibition of NAMPT” (Valo Health, Inc., priority 2010, dated 2025).

Like-named read-outs stand apart in the source and are kept apart here.

T1 sequence (P43490 whole entry): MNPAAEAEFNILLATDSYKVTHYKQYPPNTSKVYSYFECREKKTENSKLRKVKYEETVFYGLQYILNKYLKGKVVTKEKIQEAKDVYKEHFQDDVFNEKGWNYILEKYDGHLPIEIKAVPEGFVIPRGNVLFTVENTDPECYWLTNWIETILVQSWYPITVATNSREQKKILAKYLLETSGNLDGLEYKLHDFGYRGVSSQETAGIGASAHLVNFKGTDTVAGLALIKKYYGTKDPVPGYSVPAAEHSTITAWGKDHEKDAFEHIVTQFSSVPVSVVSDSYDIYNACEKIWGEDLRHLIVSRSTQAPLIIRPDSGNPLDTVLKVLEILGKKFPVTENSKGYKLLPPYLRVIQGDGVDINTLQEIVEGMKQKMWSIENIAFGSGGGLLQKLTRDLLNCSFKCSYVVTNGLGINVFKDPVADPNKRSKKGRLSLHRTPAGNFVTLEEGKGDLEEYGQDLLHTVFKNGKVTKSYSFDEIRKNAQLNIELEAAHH

Consider `COc1cc(Cl)ccc1S(=O)(=O)c1ccc(CNC(=O)c2cc3ccncc3o2)cc1`, for which the IC50 – broadly, the point on the concentration scale where inhibition reaches its midpoint – at NAMPT (NAMPT enzymatic reaction) is 8.5 nM; in the assay on A2780 cells (SRB), 24.8 nM.
On to `O=C(NCc1ccc(S(=O)(=O)c2cccc3cccnc23)cc1)c1ccc2nccn2c1` [N-{[4-(quinoline-8-sulfonyl)phenyl]methyl}imidazo[1,2-a]pyridine-6-carboxamide], for which the IC50 at NAMPT (NAMPT enzymatic assay) was 9.8 nM; with A2780 cells (SRB), 5.5 nM.
In the case of `O=C(NCc1ccc(S(=O)(=O)Nc2ccccc2CCO)cc1)c1cc2cnccc2[nH]1` [N-[(4-{[2-(2-hydroxyethyl)phenyl]sulfamoyl}phenyl)methyl]-1H-pyrrolo[3,2-c]pyridine-2-carboxamide], the IC50 at NAMPT (NAMPT enzymatic assay) was 18.8 nM; in the assay with A2780 cells (SRB) it was 19.9 nM.
In the case of `N#Cc1ccc(S(=O)(=O)c2ccc(CNC(=O)c3ccc4nccn4c3)cc2)cc1`, the IC50 turned out to be 16 nM at NAMPT (NAMPT enzymatic reaction) and 14.1 nM in the assay on A2780 cells (SRB).
As for `O=C(NCc1ccc(S(=O)(=O)c2ccccc2)cc1)c1[nH]c2ccncc2c1Br` [N-{[4-(benzenesulfonyl)phenyl]methyl}-3-bromo-1H-pyrrolo[3,2-c]pyridine-2-carboxamide], the IC50 at NAMPT (NAMPT enzymatic reaction) came to 306 nM; in the assay with A2780 cells (SRB assay), 7390 nM.
As for `COc1ccc(OC)c(S(=O)(=O)c2ccc(CNC(=O)c3cc4ccncc4s3)cc2)c1OC` [N-({4-[(2,3,6-trimethoxybenzene)sulfonyl]phenyl}methyl)thieno[2,3-c]pyridine-2-carboxamide], the IC50 is 12 nM on NAMPT (NAMPT enzymatic assay) and 5.5 nM with A2780 cells (SRB).
The matching figures for `COc1ccc(S(=O)(=O)c2ccc(CNC(=O)c3cnc4[nH]ncc4c3)cc2)c(C(F)(F)F)c1` [N-[(4-{[4-methoxy-2-(trifluoromethyl)benzene]sulfonyl}phenyl)methyl]-1H-pyrazolo[3,4-b]pyridine-5-carboxamide]: 86.8 nM and 62.8 nM.
The like results for `O=C(NCc1ccc(S(=O)(=O)c2cc(F)cc(OCC(F)(F)F)c2)cc1)c1cc2cnccc2[nH]1` were, in that order, 5.6 nM and 1.9 nM.
The like results for `O=C(NCc1ccc(S(=O)(=O)c2cncc3ccccc23)cc1)c1cc2cnccc2[nH]1` [N-{[4-(isoquinoline-4-sulfonyl)phenyl]methyl}-1H-pyrrolo[3,2-c]pyridine-2-carboxamide] were, in that order, 10.9 nM and 1.6 nM.
Turning to `COc1ccc(C(C)(C)C)cc1S(=O)(=O)c1ccc(CNC(=O)c2cnc3nccn3c2)cc1`, the IC50 was 9.8 nM at NAMPT (NAMPT enzymatic assay) and 7.7 nM with A2780 cells (SRB).
For the compound `Cc1ccc(S(=O)(=O)c2ccc(CNC(=O)c3ccc4nccn4c3)cc2)cc1C` [N-({4-[(3,4-dimethylbenzene)sulfonyl]phenyl}methyl)imidazo[1,2-a]pyridine-6-carboxamide], the half-inhibitory concentration (IC50) at NAMPT (NAMPT enzymatic reaction) stood at 11.1 nM; in the assay with A2780 cells (SRB) it was 2.97 nM.
Consider `O=C(NCc1ccc(S(=O)(=O)c2ccccc2)cc1)c1cc(-c2ccncc2)n[nH]1` [N-{[4-(benzenesulfonyl)phenyl]methyl}-3-(pyridin-4-yl)-1H-pyrazole-5-carboxamide], for which the figures for the IC50 at NAMPT (NAMPT enzymatic reaction) and in the assay on A2780 cells (SRB assay) were 3180 nM and 21600 nM, respectively.
For `CCCCOc1ccc(Cl)cc1S(=O)(=O)c1ccc(CNC(=O)c2ccc3nccn3c2)cc1`, the IC50 was 11 nM at NAMPT (NAMPT enzymatic reaction) and 8 nM with A2780 cells (SRB).
The matching figures for `Cc1ccc(S(=O)(=O)c2ccc(CNC(=O)c3cnc4nccn4c3)cc2)c(C)c1`: 2.1 nM and 49.2 nM.
For the compound `COc1ccc(S(=O)(=O)c2ccc(CNC(=O)c3cc4cnccc4[nH]3)cc2)cc1C` [N-({4-[(4-methoxy-3-methylbenzene)sulfonyl]phenyl}methyl)-1H-pyrrolo[3,2-c]pyridine-2-carboxamide], the IC50 came to 10 nM on NAMPT (NAMPT enzymatic reaction) and 2 nM in the assay on A2780 cells (SRB assay).
Turning to `COc1ccc(S(=O)(=O)c2ccc(CNC(=O)c3ccc4nccn4c3)cc2)cc1OC` [N-({4-[(3,4-dimethoxybenzene)sulfonyl]phenyl}methyl)imidazo[1,2-a]pyridine-6-carboxamide], the IC50 at NAMPT (NAMPT enzymatic reaction) is 12 nM; with A2780 cells (SRB) it was 2.51 nM.
As for `Cn1ncc2cc(S(=O)(=O)c3ccc(CNC(=O)c4cnc5[nH]ncc5c4)cc3)ccc21` [N-{[4-(1-methyl-1H-indazole-5-sulfonyl)phenyl]methyl}-1H-pyrazolo[3,4-b]pyridine-5-carboxamide], the values for the IC50 at NAMPT (NAMPT enzymatic assay) and with A2780 cells (SRB) were 5.4 nM and 2.73 nM, respectively.
As for `O=C(NCc1ccc(S(=O)(=O)c2c(Cl)cccc2Cl)cc1)c1cnc2nccn2c1`, the IC50 at NAMPT (NAMPT enzymatic reaction) was 13.4 nM; with A2780 cells (SRB), 100 to 1000 nM.
Take `Cc1cc(C)c(S(=O)(=O)c2ccc(CNC(=O)c3cc4ccncc4s3)cc2)cc1C` [N-({4-[(2,4,5-trimethylbenzene)sulfonyl]phenyl}methyl)thieno[2,3-c]pyridine-2-carboxamide]: the concentration for half-maximal inhibition (IC50) worked out at 8 nM on NAMPT (NAMPT enzymatic assay) and 8.1 nM in the assay with A2780 cells (SRB).
On to `O=C(NCc1ccc(S(=O)(=O)c2cc(C(F)(F)F)ccn2)cc1)c1cnc2[nH]ncc2c1` [N-({4-[4-(trifluoromethyl)pyridine-2-sulfonyl]phenyl}methyl)-1H-pyrazolo[3,4-b]pyridine-5-carboxamide], for which the 50% inhibitory concentration (IC50) is 28.3 nM at NAMPT (NAMPT enzymatic assay) and 11.8 nM in the assay on A2780 cells (SRB).
The matching figures for `O=C(NCc1ccc(S(=O)(=O)c2cccc(N3CCCC3)c2)cc1)c1cnc2[nH]ncc2c1`: 17.1 nM and 12.8 nM.
The matching figures for `CCN(C)c1ncc(S(=O)(=O)c2ccc(CNC(=O)c3cnc4[nH]ncc4c3)cc2)s1` [N-[(4-{2-[ethyl(methyl)amino]-1,3-thiazole-5-sulfonyl}phenyl)methyl]-1H-pyrazolo[3,4-b]pyridine-5-carboxamide]: 3.6 nM and 1.5 nM.
The matching figures for `Cn1ncc2c(S(=O)(=O)c3ccc(CNC(=O)c4cnc5nccn5c4)cc3)cccc21` [N-{[4-(1-methyl-1H-indazole-4-sulfonyl)phenyl]methyl}imidazo[1,2-a]pyrimidine-6-carboxamide]: 4.2 nM and 10.3 nM.
Turning to `COc1c(C)cc(S(=O)(=O)c2ccc(CNC(=O)c3ccc4nccn4c3)cc2)cc1C`, the IC50 on NAMPT (NAMPT enzymatic reaction) was determined as 14.6 nM; in the assay with A2780 cells (SRB), 1.4 nM.
Regarding `CC(C)Oc1ccccc1NS(=O)(=O)c1ccc(CNC(=O)c2cc3cnccc3[nH]2)cc1` [N-[(4-{[2-(propan-2-yloxy)phenyl]sulfamoyl}phenyl)methyl]-1H-pyrrolo[3,2-c]pyridine-2-carboxamide], the figures for the IC50 at NAMPT (NAMPT enzymatic reaction) and in the assay with A2780 cells (SRB assay) were 3 nM and 1 nM, respectively.
For the compound `COc1cc(S(=O)(=O)c2ccc(CNC(=O)c3cc4cnccc4[nH]3)cc2)ccc1F`, the IC50 at NAMPT (NAMPT enzymatic reaction) amounted to 27.8 nM; in the assay on A2780 cells (SRB), 5.4 nM.
Consider `CN(C)c1ncc(S(=O)(=O)c2ccc(CNC(=O)c3cnc4[nH]ncc4c3)cc2)cn1` [N-({4-[2-(dimethylamino)pyrimidine-5-sulfonyl]phenyl}methyl)-1H-pyrazolo[3,4-b]pyridine-5-carboxamide], for which the IC50 was 7.9 nM at NAMPT (NAMPT enzymatic assay) and 5.9 nM with A2780 cells (SRB).
The like results for `O=C(NCc1ccc(S(=O)(=O)c2ccc3c(c2)OCO3)cc1)c1cc2ccncc2o1` [N-{[4-(2H-1,3-benzodioxole-5-sulfonyl)phenyl]methyl}furo[2,3-c]pyridine-2-carboxamide] were, in that order, 5.3 nM and 8.7 nM.
Consider `CCOc1ccc(-c2ccc(S(=O)(=O)c3ccc(CNC(=O)c4cc5cnccc5[nH]4)cc3)cc2)cc1` [N-[(4-{[4-(4-ethoxyphenyl)benzene]sulfonyl}phenyl)methyl]-1H-pyrrolo[3,2-c]pyridine-2-carboxamide], for which the half-maximal inhibitory concentration (IC50) on NAMPT (NAMPT enzymatic assay) and in the assay on A2780 cells (SRB) was 9 nM throughout.
